Measurements taken from US10143666B2, “Small molecule inhibitors targeting CAG-repeat RNA toxicity in polyglutamine diseases” (The Chinese University of Hong Kong, priority 2015, dated 2018).

System: EGFPCAG78 RNA expressing SK-N-MC cells
Assay: LDH cytotoxicity assay, EGFPCAG78 RNA expressing SK-N-MC cells
Assay type: cell-based, human
Details: 72 hours post-transfection and treatment
Method: It was next investigated whether DB213 could mitigate expanded CAG-repeat RNA-mediated toxicity in SK-N-MC human neuronal cell. […] Taken together, DB213 could suppress the expanded CAG RNA-mediated but not polyQ protein-mediate toxicity in human neuronal cell.
SK-N-MC human neuronal cells were seeded on a 24-well plate and lactate dehydrogenase enzyme activity in the cell culture medium was measured 72 hours post-transfection and drugs treatment using the Cytotox 96 non-radioactive cytotoxicity assay (Promega).

## CN(C)CCNC(=N)c1ccc(C(=N)NCCN(C)C)cc1.Cl.Cl.Cl.Cl [DB213_D1]
  Cell death induced by EGFPCAG78 RNA (LDH assay): did not rescue the cell death
